For 28 molecules, EC50 results are on record in patent US12264159B2, “Functionalized heterocycles as antiviral agents” (Enanta Pharmaceuticals, Inc., priority 2018, dated 2025).

For orientation: EC50 means the concentration needed to bring the measured effect to its halfway point. A higher EC50 goes with a need for much substance.

For the assay, the system named is HBV in 2.2.15 cells. Put plainly: 2.2.15 cells: viral product in cell lysates quantified via quantitative real time PCR. The format is cell-based, hepatitis B virus (HBV). The note with it: Hepatitis B virus, 120 h, day 5 post treatment, 50% reduction of viral product vs no drug controls, readout (qPCR, HBsAg or HBeAg) not specified for the column. Here is the method: 2.2.15 cells are passaged upon attaining confluency in DMEM/F12 media in the presence of 10% FBS, Penn/Strep, and 250 ug/mL G418. Novel compounds are 5 fold serially diluted in DMSO and added to 96 well plates containing 35,000 cells/well at a 1:200 dilution so that the final concentration of DMSO is 0.5%. On day 5, post treatment cell lysates and supernatants are harvested for analysis.
Cells are lysed using Agilent Sidestep Lysis buffer, diluted 1:100 and quantified via quantitative real time PCR. Commercially available ELISA kits are used to quantitate the viral proteins HBsAg (Alpco) or HBeAg (US Biological) by following the manufacturer's recommended protocol after diluting samples to match the linear range of their respective assays. Irrespective of readout, compound concentrations that reduce viral product accumulation in the cell lysates or supernatants by 50% relative to no drug controls (EC50) are reported; EC50 ranges are as follows: A<0.1 μM; B 0.2-1 μM; C>1 μM.
`CC(C)(C)[C@@H]1Cn2nc(-c3ccc(F)cc3)c(Cl)c2-c2cc(=O)c(C(=O)O)cn21` [Example 87, (R)-6-(tert-butyl)-1-chloro-2-(4-fluorophenyl)-10-oxo-5,6-dihydro-10H-pyrazolo[1,5-a]pyrido[2,1-c]pyrazine-9-carboxylic acid] registered a 50% effective concentration (EC50) of under 100 nM.
`CC(C)(C)[C@@H]1Cn2nc(-c3cc(F)ccc3OCC(F)(F)F)c(Cl)c2-c2cc(=O)c(C(=O)O)cn21` [Example 89, (R)-6-(tert-butyl)-1-chloro-2-(5-fluoro-2-(2,2,2-trifluoroethoxy)phenyl)-10-oxo-5,6-dihydro-10H-pyrazolo[1,5-a]pyrido[2,1-c]pyrazine-9-carboxylic acid]: the concentration giving a half-maximal response (EC50) was under 100 nM.
Then `CC(C)(C)[C@@H]1Cn2cc(-c3ccc(F)cc3)nc2-c2cc(=O)c(C(=O)O)cn21` [Example 90, (R)-6-(tert-butyl)-2-(4-fluorophenyl)-10-oxo-5,6-dihydro-10H-imidazo[1,2-a]pyrido[2,1-c]pyrazine-9-carboxylic acid], with 200 to 1000 nM; and `CCOc1ccccc1-c1nn2c(c1F)-c1cc(=O)c(C(=O)O)cn1[C@H](C(C)(C)C)C2` [Example 92, (R)-6-(tert-butyl)-2-(2-ethoxyphenyl)-1-fluoro-10-oxo-5,6-dihydro-10H-pyrazolo[1,5-a]pyrido[2,1-c]pyrazine-9-carboxylic acid], with under 100 nM.
The same measure for `CC(C)(C)[C@@H]1Cn2ncc(Cl)c2-c2cc(=O)c(C(=O)O)cn21` [Example 99, (R)-6-(tert-butyl)-1-chloro-10-oxo-5,6-dihydro-10H-pyrazolo[1,5-a]pyrido[2,1-c]pyrazine-9-carboxylic acid]: 200 to 1000 nM.
Then `Cc1ncc(-c2cnn3c2-c2cc(=O)c(C(=O)O)cn2[C@H](C(C)(C)C)C3)s1` [Example 105, (R)-6-(tert-butyl)-1-(2-methylthiazol-5-yl)-10-oxo-5,6-dihydro-10H-pyrazolo[1,5-a]pyrido[2,1-c]pyrazine-9-carboxylic acid], with 200 to 1000 nM.
`CC(C)(C)[C@@H]1Cn2ncc(-c3cncs3)c2-c2cc(=O)c(C(=O)O)cn21` [Example 106, (R)-6-(tert-butyl)-10-oxo-1-(thiazol-5-yl)-5,6-dihydro-10H-pyrazolo[1,5-a]pyrido[2,1-c]pyrazine-9-carboxylic acid] registered an EC50 of under 100 nM.
The same measure for `CC(C)(C)[C@@H]1Cn2ncc(-c3ccc(OC(F)(F)F)cc3)c2-c2cc(=O)c(C(=O)O)cn21` [Example 117, (R)-6-(tert-butyl)-10-oxo-1-(4-(trifluoromethoxy)phenyl)-5,6-dihydro-10H-pyrazolo[1,5-a]pyrido[2,1-c]pyrazine-9-carboxylic acid]: over 1000 nM; for `CC(C)(C)[C@@H]1Cn2ncc(-c3cccnc3)c2-c2cc(=O)c(C(=O)O)cn21` [Example 118, (R)-6-(tert-butyl)-10-oxo-1-(pyridin-3-yl)-5,6-dihydro-10H-pyrazolo[1,5-a]pyrido[2,1-c]pyrazine-9-carboxylic acid]: under 100 nM; for `CC(C)(C)[C@@H]1Cn2ncc(-c3ccncc3)c2-c2cc(=O)c(C(=O)O)cn21` [Example 119, (R)-6-(tert-butyl)-10-oxo-1-(pyridin-4-yl)-5,6-dihydro-10H-pyrazolo[1,5-a]pyrido[2,1-c]pyrazine-9-carboxylic acid]: under 100 nM.
Then `CC(C)(C)[C@@H]1Cn2ncc(-c3cncnc3)c2-c2cc(=O)c(C(=O)O)cn21` [Example 120, (R)-6-(tert-butyl)-10-oxo-1-(pyrimidin-5-yl)-5,6-dihydro-10H-pyrazolo[1,5-a]pyrido[2,1-c]pyrazine-9-carboxylic acid], with over 1000 nM; and `CC(C)(C)[C@@H]1Cn2ncc(-c3ccccc3C(F)(F)F)c2-c2cc(=O)c(C(=O)O)cn21` [Example 121, (R)-6-(tert-butyl)-10-oxo-1-(2-(trifluoromethyl)phenyl)-5,6-dihydro-10H-pyrazolo[1,5-a]pyrido[2,1-c]pyrazine-9-carboxylic acid], with over 1000 nM; and `CCOc1ccccc1-c1cnn2c1-c1cc(=O)c(C(=O)O)cn1[C@H](C(C)(C)C)C2` [Example 124, (R)-6-(tert-butyl)-1-(2-ethoxyphenyl)-10-oxo-5,6-dihydro-10H-pyrazolo[1,5-a]pyrido[2,1-c]pyrazine-9-carboxylic acid], with under 100 nM.
The same measure for `CC(C)[C@@H]1Cn2nc(C3CC3)c(-c3cncc(F)c3)c2-c2cc(=O)c(C(=O)O)cn21` [Example 135, (R)-2-cyclopropyl-1-(5-fluoropyridin-3-yl)-6-isopropyl-10-oxo-5,6-dihydro-10H-pyrazolo[1,5-a]pyrido[2,1-c]pyrazine-9-carboxylic acid]: under 100 nM.
Molecule `CC(C)[C@@H]1Cn2nc(C3CC3)c(-c3cn[nH]c3)c2-c2cc(=O)c(C(=O)O)cn21` [Example 137, (R)-2-cyclopropyl-6-isopropyl-10-oxo-1-(1H-pyrazol-4-yl)-5,6-dihydro-10H-pyrazolo[1,5-a]pyrido[2,1-c]pyrazine-9-carboxylic acid] had an EC50 of 200 to 1000 nM.
The same measure for `CC(C)[C@@H]1Cn2nc(C3CC3)c(-c3cnsc3)c2-c2cc(=O)c(C(=O)O)cn21` [Example 138, (R)-2-cyclopropyl-6-isopropyl-1-(isothiazol-4-yl)-10-oxo-5,6-dihydro-10H-pyrazolo[1,5-a]pyrido[2,1-c]pyrazine-9-carboxylic acid]: under 100 nM; for `CC(C)[C@@H]1Cn2nc(C3CC3)c(-c3cnco3)c2-c2cc(=O)c(C(=O)O)cn21` [Example 139, (R)-2-cyclopropyl-6-isopropyl-1-(oxazol-5-yl)-10-oxo-5,6-dihydro-10H-pyrazolo[1,5-a]pyrido[2,1-c]pyrazine-9-carboxylic acid]: 200 to 1000 nM.
Then `CC(C)[C@@H]1Cn2nc(C3CC3)c(-c3ccccc3O)c2-c2cc(=O)c(C(=O)O)cn21` [Example 141, (R)-2-cyclopropyl-1-(2-hydroxyphenyl)-6-isopropyl-10-oxo-5,6-dihydro-10H-pyrazolo[1,5-a]pyrido[2,1-c]pyrazine-9-carboxylic acid], with under 100 nM; and `CC(C)[C@@H]1Cn2nc(C3CC3)c(-c3ccncc3)c2-c2cc(=O)c(C(=O)O)cn21` [Example 144, (R)-2-cyclopropyl-6-isopropyl-10-oxo-1-(pyridin-4-yl)-5,6-dihydro-10H-pyrazolo[1,5-a]pyrido[2,1-c]pyrazine-9-carboxylic acid], with under 100 nM; and `CC(C)[C@@H]1Cn2nc(C3CC3)c(-c3ccnnc3)c2-c2cc(=O)c(C(=O)O)cn21` [Example 145, (R)-2-cyclopropyl-6-isopropyl-10-oxo-1-(pyridazin-4-yl)-5,6-dihydro-10H-pyrazolo[1,5-a]pyrido[2,1-c]pyrazine-9-carboxylic acid], with 200 to 1000 nM.
The same measure for `CC(C)(C)[C@@H]1Cn2nc(C3CC3)c(-c3ccnnc3)c2-c2cc(=O)c(C(=O)O)cn21` [Example 161, (R)-6-(tert-butyl)-2-cyclopropyl-10-oxo-1-(pyridazin-4-yl)-5,6-dihydro-10H-pyrazolo[1,5-a]pyrido[2,1-c]pyrazine-9-carboxylic acid]: 200 to 1000 nM.
`CC(C)(C)[C@@H]1Cn2nc(-c3ccc(F)cc3)c(-c3ccoc3)c2-c2cc(=O)c(C(=O)O)cn21` [Example 167, (R)-6-(tert-butyl)-2-(4-fluorophenyl)-1-(furan-3-yl)-10-oxo-5,6-dihydro-10H-pyrazolo[1,5-a]pyrido[2,1-c]pyrazine-9-carboxylic acid] gave an EC50 of under 100 nM.
Then `CC(C)[C@@H]1Cn2nc(-c3ccnnc3)c(-c3ccnnc3)c2-c2cc(=O)c(C(=O)O)cn21` [Example 173, (R)-6-isopropyl-10-oxo-1,2-di(pyridazin-4-yl)-5,6-dihydro-10H-pyrazolo[1,5-a]pyrido[2,1-c]pyrazine-9-carboxylic acid], with 200 to 1000 nM; and `CC(C)[C@@H]1Cn2nc(-c3cncc(F)c3)c(-c3cncc(F)c3)c2-c2cc(=O)c(C(=O)O)cn21` [Example 174, (R)-1,2-bis(5-fluoropyridin-3-yl)-6-isopropyl-10-oxo-5,6-dihydro-10H-pyrazolo[1,5-a]pyrido[2,1-c]pyrazine-9-carboxylic acid], with 200 to 1000 nM.
Then `CC(C)[C@@H]1Cn2nc(-c3ccncc3)c(-c3ccncc3)c2-c2cc(=O)c(C(=O)O)cn21` [Example 175, (R)-6-isopropyl-10-oxo-1,2-di(pyridin-4-yl)-5,6-dihydro-10H-pyrazolo[1,5-a]pyrido[2,1-c]pyrazine-9-carboxylic acid], with 200 to 1000 nM.
Consider `CC(C)[C@@H]1Cn2nc(-c3ccc(OC4CC4)cc3)c(-c3ccc(OC4CC4)cc3)c2-c2cc(=O)c(C(=O)O)cn21` [Example 176, (R)-1,2-bis(4-cyclopropoxyphenyl)-6-isopropyl-10-oxo-5,6-dihydro-10H-pyrazolo[1,5-a]pyrido[2,1-c]pyrazine-9-carboxylic acid], for which the EC50 lay within 200 to 1000 nM.
Then `CC(C)[C@@H]1Cn2nc(-c3cccnc3)c(-c3cccnc3)c2-c2cc(=O)c(C(=O)O)cn21` [Example 177, (R)-6-isopropyl-10-oxo-1,2-di(pyridin-3-yl)-5,6-dihydro-10H-pyrazolo[1,5-a]pyrido[2,1-c]pyrazine-9-carboxylic acid], with 200 to 1000 nM.
Consider `CC(C)[C@@H]1Cn2nc(-c3cccc(O)c3)c(-c3cccc(O)c3)c2-c2cc(=O)c(C(=O)O)cn21` [Example 178, (R)-1,2-bis(3-hydroxyphenyl)-6-isopropyl-10-oxo-5,6-dihydro-10H-pyrazolo[1,5-a]pyrido[2,1-c]pyrazine-9-carboxylic acid], for which the EC50 is under 100 nM.
